One series can be described thus: in vitro. Conditions: human. The source says:
(§1) The human myeloma cell line RPMI8226 was obtained from American Type Culture Collection (Rockville, Md.). The MM1S myeloma cell line was provided by Dr. Steven Rosen (Northwestern University, Chicago, Ill.). Normal peripheral blood mononuclear cells (PBMCs) were isolated by Histopaque® density gradient centrifugation, according to the manufacturer's protocol (Sigma-Aldrich, St. Louis, Mo.). Myeloma cell lines and PBMCs were maintained in RPMI 1640 (Omega Scientific, Tarzana, Calif.) supplemented with 10% fetal bovine serum, 2 mM L-glutamine, 100 IU/mL penicillin, 100 μg/mL streptomycin, and essential amino acids in an atmosphere of 5% carbon dioxide (CO2) at 37° C.
(§2) Cells were seeded at 10^5 cells/100 μL/well in 96-well plates and incubated for 24 hours. RPMI8226 and MM1S cells were cultured in the presence of vehicle, COMPOUND 1, bortezomib, melphalan, COMPOUND 1+bortezomib, or COMPOUND 1+melphalan for 48 hours. After the incubation period, cell viability was quantified using the CellTiter 96® AQueous Non-Radioactive Cell Proliferation Assay (Promega, Madison, Wis.). Each well was treated with MTS (3-(4,5-dimethylthiazol-2-yl)-5-(3-carboxymethoxyphenyl)-2-(4-sulfophenyl)-2H-tetrazolium, inner salt) for 1 to 4 hours, after which absorbance was recorded at 490 nm. The quantity of formazan product as measured by absorbance at 490 nm is directly proportional to the number of living cells in culture.
(§3) In order for therapy with two or more PIs to be feasible in vivo, the combination must spare non-neoplastic cells. […] A healthy donor's PBMCs were cultured for 48 hours in the presence of COMPOUND 1 alone, bortezomib alone, or both agents together, and cell viability was quantified by MTS assay.

For series [1], the system named is normal peripheral blood mononuclear cells (PBMCs). Kind of series: in vitro.
From the text: as §1, §2, §3

The test system of the next series is LAGκ-1A tumor. Kind of series: Intramuscular LAGκ-1A tumor xenograft model (serum hIgG, tumor volume). Conditions: for serum hIgG levels: 28 days of treatment; for serum hIgG levels and tumor volume vs vehicle: alone or together. On the procedure: Six- to 8-week-old male severe combined immunodeficient (SCID) mice were obtained from the Jackson Laboratory (Bar Harbor, Me.) and maintained in a specific pathogen-free area in our animal resources facility. All animal studies were conducted according to protocols approved by the Institutional Animal Care and Use Committee. Animals were anesthetized with ketamine, xylazine, and isoflurane prior to surgery and were euthanized when tumors reached 2 cm in diameter.
Biopsy tissue was surgically implanted in the hind limbs of anesthetized SCID mice and passaged through succeeding generations (32).
Myeloma tumors (LAGκ-1A or LAGκ-1B) were excised from an anesthetized donor mouse, sectioned into 20 to 40 mm^3 pieces, and surgically implanted into the left superficial gluteal muscle of anesthetized naive SCID mice. Recipient mice received weekly injections of anti-asialo GM1 rabbit serum (Wako Bioproducts, Richmond, Va.) to further suppress immune activity. Mice were blindly assigned to one of the experimental groups, and treatment was initiated 7 to 21 days after tumor implantation. COMPOUND 1 was administered via oral gavage daily (0.5-5.0 mg/kg) or twice weekly (5-10 mg/kg). COMPOUND 1 was also administered twice weekly (W, F) via either IV injection (0.5-3.0 mg/kg) or oral gavage (10 mg/kg), as specified. Melphalan (1 mg/kg) was provided via weekly intraperitoneal (IP) injections (W). Bortezomib (0.5 mg/kg) was dispensed twice weekly (T, Th) via IV injection. Control treatment consisted of COMPOUND 1 diluent (3.2 mL 5% mannitol and 800 μL propylene glycol) alone.
Mice bearing MM tumors underwent weekly retro-orbital bleeds. Resulting samples were spun at 13,000 rpm for 30 minutes to isolate serum. The hIgG ELISA kit (Bethyl Laboratories, Montgomery, Tex.) was used according to the manufacturer's specifications. Absorbance at 450 nm with a reference wavelength of 550 nm was determined on a μQuant microplate spectrophotometer with KC Junior software (Bio-Tek Instruments, Winooski, Vt.). Data graphed are the mean±SEM with n=7-8 mice/group.
As a direct measurement of tumor growth, calipers were used to assess tumor volume weekly, and the formula for an ellipsoid volume was applied ( 4/3π×[width/2]^2×[length/2]).
Percent inhibition of tumor growth is represented as the tumor volume of the test drug group over the tumor volume of the untreated group (T/C). The optimal value is the minimal T/C ratio that reflects the maximal tumor growth inhibition achieved. The criterion for efficacy for the T/C ratio is ≦42%, according to National Cancer Institute (NCI) standard criteria (44).
Efficacy of drug therapy against tumors was standardized to the time (t) required for the untreated tumor to grow to a determined size based on the greatest difference in time to reach a tumor volume between the control and treatment group. This value can be represented as the growth delay (in days) between treated and control (tt−tc) (44).
Tumor growth and hIgG levels were analyzed in terms of treatment group means and standard error. Student's t-test was applied to determine the statistical significance of differences between treatment groups. Minimal significance level was P<0.05.

For the molecule `CC(C)C[C@H](NC(=O)[C@@H](NC(=O)c1cccc(-c2ccccc2)n1)[C@@H](C)O)B(O)O` [COMPOUND 1, [(1R)-1-[[(2S,3R)-3-hydroxy-2-[6-phenyl-pyridine-2-carbonyl)amino]-1-oxobutyl]amino]-3-methylbutylboronic acid], the viability – broadly, a per cent measure of how many cells are alive, often set against a control – at 48 h, 0.009 µM in “in vitro” was roughly 75%. Besides, the “cytotoxic effects on normal PBMCs” value in series [1] is given as “negligible cytotoxic effects”. The “serum hIgG levels” value with LAGκ-1A tumor (1 mg/kg and 3 mg/kg IV twice weekly, P=0.0001 / P=0.0002 vs control) is “essentially undetectable”; with LAGκ-1A tumor (oral (10 mg/kg twice weekly), P=0.0001), “negligible”. For the same molecule, the “serum hIgG levels and tumor volume vs vehicle” value in the series with LAGκ-1A tumor (COMPOUND 1 1 mg/kg IV, bortezomib 0.5 mg/kg IV, twice weekly) was “only partially inhibited”; in the series with LAGκ-1A tumor (melphalan 1 mg/kg IP weekly, COMPOUND 1 1 mg/kg IV twice weekly, 3 weeks), “nonsignificant decrease”. Also, the “reduction in the volume of tumors vs control” value with LAGκ-1A tumor (IV 1 or 3 mg/kg twice weekly, after 4 weeks, P=0.0001) is reported as “approximately 15 fold”. In addition, the “delay of tumor volume growth to 87.5 mm^3” value with LAGκ-1A tumor (mouse, in vivo, po, 5 mg/kg) is recorded as 53 days; in the series on LAGκ-1A tumor (oral 5 mg/kg daily, vs untreated control) it was 530%. Moreover, the “tumor inhibition (hIgG, tumor volume)” value in the series with LAGκ-1A tumor (mouse, in vivo, po, 5 mg/kg) is listed as “significant tumor inhibition”. For the same molecule, the “mice died of drug-related toxicity” value with LAGκ-1A tumor (oral 5 mg/kg daily) is “Two of fifteen”. In the series on LAGκ-1A tumor (oral 10 mg/kg twice weekly), the “mice surviving five weeks of dosing and three week follow-up” value is listed as 15/15. Also, the “Percentage T/C” value is 29.3% in the series on LAGκ-1A tumor (oral 10 mg/kg twice weekly, day 21); 17.3% in the series on LAGκ-1A tumor (oral 10 mg/kg twice weekly, day 28); 6.1% in the series with LAGκ-1A tumor (oral 10 mg/kg twice weekly, day 35); 6.1% in the series with LAGκ-1A tumor (oral 10 mg/kg twice weekly, day 42); 10.6% with LAGκ-1A tumor (oral 10 mg/kg twice weekly, day 49). The “delay of tumor volume growth to 700 mm^3” value in the series with LAGκ-1A tumor (oral 10 mg/kg twice weekly, day 32.5 control vs day 63) is 30.5 days; with LAGκ-1A tumor (oral 10 mg/kg twice weekly, vs no treatment), 93.8%. Moreover, the “human paraprotein secretion and tumor volume” value with LAGκ-1A tumor (oral 10 mg/kg twice weekly, three weeks (day 28), hIgG P=0.0011, tumor volume P=0.001) is “significant inhibition of both human paraprotein secretion and reduction of tumor volume”. The “tumor volume vs control-treated tumors” value in the series with LAGκ-1A tumor (oral (10 mg/kg twice weekly), 14 days of treatment, P=0.0002) is “marked reduction in tumor volume”. The “serum hIgG levels vs control-treated animals” value with LAGκ-1A tumor (oral (10 mg/kg twice weekly), within 2 weeks of treatment, P=0.0007) is recorded as “significantly lower”. Also, in the series on LAGκ-1A tumor (oral, daily, 3 mg/kg), the “anti-myeloma activity (human IgG levels and tumor volumes)” value is recorded as “moderate anti-myeloma activity”. In the series on LAGκ-1A tumor (single-agent IV twice weekly, escalating doses), the “paraprotein secretion from tumors” value is recorded as “dose-dependent decrease in paraprotein secretion”.

The values are drawn from patent publication US8765720B2, “Combination therapy for the treatment of multiple myeloma” (Cephalon, Inc., priority 2009, dated 2014).
